# Experimental data published in PubChem BioAssay AID651717 (Broad Institute, 2012).
# System: mESC Bmi1-luciferase reporter, firefly/renilla ratio, 24 h
# Assay: compounds raising Bmi1 reporter signal – mouse embryonic stem cells, luciferase, cherry-pick, esBAF inhibitor project, dose response (AID 651717);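 note: luciferase knocked into Bmi1 locus with EF-1a renilla as cell number control; rising ratio signals esBAF inhibition which derepresses Bmi1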
row,SMILES,AC40 [µM]
1,O=C(Nc1nccs1)C(=O)c1c[nH]c2ccccc12,0.751
2,COC(=O)c1sc(Nc2ccccc2)nc1C,4.18
3,Cc1ccc(OCc2cc(C(=O)NC(C)Cc3cccnc3)no2)cc1C (stereo unspecified),1.8
4,Cc1c(Cl)cccc1NC(=O)c1cc(C2CC2)on1,1.81
5,CC(=O)c1c(C)[nH]c(C(=O)OCc2ccc(Br)cc2)c1C,6.96
6,O=C(NC1CCCCC1)c1cc(-c2cccc(Cl)c2)on1,6.04
7,CC(=O)c1ccc(NC(=O)C2CC(=O)N(Cc3ccccc3)C2)cc1 (stereo unspecified),3.25
8,Cc1ccc(-c2noc(-c3ccccc3C(=O)N3CCN(C)CC3)n2)cc1,11.5
9,CSc1cccc(NC(=O)N2CCc3ccc(NC(=O)c4ccccn4)cc3C2)c1,4.23
10,Cc1ccc2c(CN(C)Cc3ccccc3)cc(=O)oc2c1,1.82
11,Oc1ccc(Cl)cc1C=NN1CCCCCC1,1.37
12,Cn1cccc1C(=O)NC1CCCCCC1,3.74
13,CCC(=O)c1ccc(N2CCCCCC2)c(F)c1,4.92
14,CC(C)C1CCN(C(=O)C2CCC(=O)N(C3CCCCCC3)C2)CC1 (stereo unspecified),9.83
15,CCCCNC(=O)CSc1nc2ccc(N3CCOCC3)cc2c(=O)n1Cc1ccc(OC)cc1,11
16,Cc1ccc(CNC(=O)c2ccc(Cn3cc(-c4ccc(C)cc4)nc3-c3ccncc3)cc2)cc1,1.77
17,C[C@H]1CN([C@@H](C)CO)C(=O)CCCn2nncc2CO[C@@H]1CN(C)C(=O)Nc1ccc2c(c1)OCCO2,29.2
18,CC(C)c1ccc(-c2nn(-c3ccccc3)cc2C2C(C#N)=C(N)OC3=C2C(=O)CC(C)(C)C3)cc1 (stereo unspecified),29.1
19,COc1ccccc1-c1nc(SCc2ccccn2)n[nH]1,8.67
20,C/C(=N\OC(=O)NC(C)C)c1sc(-c2ccccc2)nc1C,7.63
21,O=C1CCN(Cc2ccccc2)CCN1CCSc1ccccc1,3.08
22,COc1ccc(Nc2ccc3ccccc3c2)cc1,1.13
23,Cc1sc2nc(-c3ccc(Br)cc3)oc(=O)c2c1C,1.61
24,O=C(NC1CCCCCCC1)c1cccc(Cl)c1,10.7
25,O=C(Nc1ccc2c(c1)C(=O)c1ccccc1-2)c1ccccc1,1.08
26,COc1ccc(CCC(=O)N2CCc3ccccc32)cc1,5.22

row,SMILES,AC40 [µM]
1,CCCS(=O)(=O)N1CCC(C(=O)NC2CCC(C)CC2)CC1 (stereo unspecified),3.19
2,CCC(=O)c1ccc(N2CCCC2)c(F)c1,6.47
3,Cn1c2nc3ccccc3c-2nc2ccccc21,4.33
4,CCN(C(=O)c1cc2c(=O)n3ccccc3nc2s1)C1CCCCC1,14
5,CC(C)c1ccc(CNc2ncccn2)cc1,2.82
6,O=C(Nc1ccccn1)c1ccc(Cl)c(S(=O)(=O)N2CCCC2)c1,14.6
7,Clc1ccc(N/N=C/c2cccnc2)cc1,2.59
8,CC(C)CC1C(=O)N(Cc2cn(CCC3OCCCO3)nn2)CCS(=O)(=O)N1Cc1ccc(-c2ccc(Cl)nc2)cc1 (stereo unspecified),12.9
9,Cc1ccc(O)c(N=Cc2ccc(C)s2)c1,25.8
10,O=C(CN1CCCCC1)Nc1nc(-c2ccccc2)cs1,11.5
11,O=C(NCC1CC1)Nc1ccc(Cl)cc1,15.5
12,O=C(c1cc(COc2cccc(C(F)(F)F)c2)on1)N1CCCC1,17.5
13,O=C1NC(=Nc2ccccc2)S/C1=C\c1cccn1-c1ccccc1,2.43
14,OC(c1ccc(F)c(F)c1)c1nc(-c2ccc3ccccc3c2)cs1 (stereo unspecified),20.3
15,COC(=O)c1ccc(CN2C(=O)NC3(CCCCC3)C2=O)cc1,7.87
16,CCOC(=O)N1CCN(C(=O)CSCC(=O)Nc2nc(-c3ccc4c(c3)OCO4)cs2)CC1,12.1
17,CCN(CC(=O)NCc1ccc(F)cc1)C(=O)c1ccc(COc2ccccc2)cc1,25.2
18,O=C(Nc1ccccc1)c1cc(C2CCCN(C(=O)c3ccccc3)C2)on1 (stereo unspecified),4.54
19,O=C(c1ccncc1)N1N=C(c2ccc(Cl)cc2)CC1c1ccccc1O (stereo unspecified),2.04
20,O=C(CCNS(=O)(=O)c1cccs1)N1CCc2ccccc2C1,6.72
21,COc1cccc(NC(=O)C(=O)NCC2CCCN2S(=O)(=O)c2cccs2)c1 (stereo unspecified),1.25
22,COc1cc2ccccc2cc1C(=O)Nc1ccccc1C,1.85
23,COc1ccccc1CNc1nc2cc(-c3sccc3C)sc2c(=O)n1C,6.95
24,COc1cccc(NC(=O)c2ccnc(N3CCC(C(=O)NCc4ccccc4OC)CC3)c2)c1,8.36
25,CC(=O)c1ccc(OCc2cc(C(=O)N(C)Cc3cc(C)no3)no2)cc1,7.14
26,O=C(c1ccccc1)c1ccc2ccccc2c1,3.04

row,SMILES,AC40 [µM]
1,O=S(=O)(Nc1cccc(-c2ccc(N3CCCCCC3)nn2)c1)c1ccc(C(F)(F)F)cc1,13.1
2,COc1ccc(C(=O)/C=C(\C)Nc2ccc3c(c2)OCO3)cc1,1.85
3,COC(=O)c1c(-c2ccc(SC)cc2)sc2ccc(OC)cc12,0.613
4,COc1c(C(=O)NNC(=O)c2ccccc2)csc1Br,0.646
5,CC(=O)Nc1ccccc1OCc1nnc(-c2ccc(Cl)cc2)o1,8.95
6,O=P(O)(O)c1ccccc1OCCOCCOCCOCCOc1ccccc1P(=O)(O)O,8.04
7,O=C(NNC(=O)c1cccc2ccccc12)c1ccc(Cl)cc1Cl,12.7
8,CC1CCc2sc(C(=O)NC3CCCCC3)cc2C1 (stereo unspecified),1.08
9,O=C(c1c(F)cccc1F)N1CCCC(c2nc(-c3cccs3)no2)C1 (stereo unspecified),11.8
10,CNc1oc(-c2ccc(OCc3ccccc3)cc2)nc1C#N,24.4
11,Cc1cc(F)ccc1-c1cc(C(=O)Nc2ccc(F)cc2)[nH]n1,0.757
12,COc1ccc(C)c2sc(=NC(=O)c3cccc(N4C(=O)CCC4=O)c3)n(C)c12,1.81
13,Nc1nc(-c2ccc(Oc3ccccc3)cc2)cs1,7.87
14,Cc1csc(Nc2nc(N)c(C(=O)Nc3ccccc3)o2)n1,3.69
15,COc1ccc2[nH]cc(C(=O)CNc3nc(C)cs3)c2c1,10.3
16,O=C1N=C(N2CCCCC2)S/C1=C\c1ccccc1F,2.67
17,Clc1ccc(OCc2nc(-c3ccncc3)no2)cc1,10.8
18,CS(=O)(=O)c1cccc(-c2csc(N3CCC(C(N)=O)CC3)n2)c1,< 0.26
19,CCC1CCCCN1C(=O)c1ccc2nc(Cc3ccc(OC)cc3)oc2c1 (stereo unspecified),3.04
20,Cc1ccc(/C(N)=N/OC(=O)CCc2ccccc2)cc1,11
21,Cc1csc(SCCN2C(=O)c3ccccc3C2=O)n1,3.17
22,CSc1ccccc1NC(=O)c1cc(C(C)C)on1,3.11
23,CO[C@@H]1CN(C)C(=O)c2cc(NC(=O)Nc3ccc4c(c3)OCO4)ccc2OC[C@H](C)NC[C@@H]1C,6.97
24,O=c1c(-c2nc3ccccc3s2)cccn1Cc1ccc(Cl)cc1,3.09
25,O=C(Nc1cccc(O)c1)c1ccc(Br)cc1,2.45
26,Cc1ccc(Cn2cc(-c3ccccc3)nn2)cc1,7.62

row,SMILES,AC40 [µM]
1,Cc1ccc(NC(=O)C2CCCN(c3ncccn3)C2)cc1C (stereo unspecified),4.21
2,COc1ccc(C(=O)CC(=O)c2ccccc2O)cc1OC,15.1
3,COc1cccc(Nc2nc(-c3sc(C)nc3C)cs2)c1,8.61
4,COc1ccc(-c2csc(Nc3cc(C)ccn3)n2)cc1C,1.91
5,Cc1ccc(Nc2nc(Cl)nc(NC(C)(C)C)n2)cc1,1.47
6,Cc1ccc(Nc2ncnc3sc(C)c(C)c23)cc1,3.76
7,c1ccc2c(c1)Nc1cc3ccccc3cc1O2,4.66
8,NC(N)=NC(=O)c1nc(Cl)c(N2CCCCCC2)nc1N,3.13
9,COc1ccc(NC(=O)c2csc3c2CCCC3)cc1,0.459
10,CCN(CC)C(=O)c1nc(-c2cccc3ccccc23)no1,13.1
11,CC(=O)c1ccc(OCc2ccccc2)c(C)c1O,9.35
12,CCS(=O)(=O)n1nc(-c2ccc(OC)cc2)nc1SC,5.54
13,COc1ccc(C2=Nc3ccccc3NC(=O)C2N(C(=O)c2cc3ccccc3[nH]2)c2ccccc2)cc1 (stereo unspecified),1.44
14,CC(=O)Nc1ccc(NC(=O)c2cccc(-c3cc4ccccc4oc3=O)c2)cc1,9.75
15,Oc1ccccc1C=NN1CCCCCC1,1.93
16,Cn1c(C(=O)N/N=C/c2ccccc2)cc2ccccc21,2.84
17,CCCC(=O)N1CCN(c2nc3ccc(Br)cc3s2)CC1,1.7
18,O=C(CCCc1ccccn1)c1ccc(-c2ccccc2)cc1,4.03
19,C=CCNc1nc(NCc2cccc(OC)c2)c2sc(-c3ccccc3)cc2n1,1.86
20,c1ccc(Nc2cccc(Nc3ccccc3)n2)cc1,4.8
21,CCc1nnc(NC(=O)c2ccc3c(=O)n4c(nc3c2)CCC4)s1,2.51
22,ClCCn1cnc2c(SCc3ccccc3)ncnc21,2.74
23,COc1ccc(CN(C(=O)CSc2nnc(-c3c[nH]c4ccccc34)o2)c2ccc(F)cc2)cc1OC,7.04
24,COc1cccc(Nc2cc(C)c3ccccc3n2)c1,6.06
25,CC(=O)Nc1cc2c3c(cccc3c1)-c1ccccc1-2,5.23
26,COc1cccc(NC(=O)N2CCc3nc(Nc4ccc(C(C)C)cc4)ncc3C2)c1,29.9

row,SMILES,AC40 [µM]
1,c1ccc(-c2noc(CC3CCCCC3)n2)cc1,4.12
2,Oc1cccc(C=NNc2ccccn2)c1,5.37
3,Brc1ccccc1-c1nnc(-c2cccnc2)o1,6.08
4,COc1ccccc1C(=O)Nc1cccc2cccnc12,13.9
5,Cc1ccc(CN2CC(C(=O)Nc3cc(C)ccn3)CC2=O)cc1 (stereo unspecified),1.48
6,COc1ccc(CNC(=O)Nc2ccc(C)cc2)cc1,8.63
7,CCSc1nnc(Nc2ccccc2)s1,11.1
8,Nc1nc(SCc2ccccc2)cc(SCc2ccccc2)n1,4.44
9,O=C(Nc1ccc(Cl)c(Cl)c1)c1ccccc1NC(=O)C1CC=CCC1C(=O)O (stereo unspecified),7.6
10,COc1ccc(C(=O)CNc2cccc(F)c2)cc1,16.4
11,CC(C)Nc1nc(Cl)nc(Nc2ccccc2)n1,5.89
12,O=C(c1noc2c1CCCC2)N1CCc2ccccc2C1,2.99
13,N#Cc1c(/N=C/c2cccs2)sc2c1CCC2,0.897
14,CS(=O)(=O)c1ccccc1C(=O)Nc1ccc(-c2nc3ccccc3[nH]2)cc1,3.96
15,Cc1ccc(C)c(N2CCN(C(=O)CCc3nc(-c4ccccc4Br)no3)CC2)c1,15.8
16,C/C(=N\NC(=O)c1cccs1)c1ccc2ccccc2c1,12
17,CCC(C)NC(=O)c1cc(CC(C)C)on1 (stereo unspecified),6.83
18,Cc1sc(NC(=O)c2cccs2)nc1-c1ccccc1,5.47
19,Nc1cc2c3ccccc3ccc2c2ccccc12,2.47
20,Cc1cccc(Nc2nc(-c3sc(C)nc3C)cs2)c1,2.71
21,Cc1ccc(NC(=O)C2CCCN(C(=O)c3ccc(Cl)cc3)C2)cc1C (stereo unspecified),6.09
22,O=C(Cn1c(/C=C/c2ccccc2)nc2ccccc21)Nc1ccc(F)cc1,2.78
